Results taken from patent US20220402873A1, “NOVEL P62 LIGAND COMPOUND, AND COMPOSITION CONTAINING SAME FOR PREVENTING, AMELIORATING, OR TREATING PROTEINOPATHIES” (AUTOTAC INC., priority 2019, published 2022).

Key:
Type in all cases: cell-based
[1] = biological target: T1, p62 protein (Homo sapiens, UniProt Q13501); experiment: Activity of p62 protein and delivery of ubiquitinated substrate proteins to autophagy by immunofluorescence staining (p62, FK2) and confocal microscopy; set-up: endogenous in cells; host or cells: HeLa; details: Hela cell line, 1 uM, 6 hours
T1 sequence (Q13501 whole entry): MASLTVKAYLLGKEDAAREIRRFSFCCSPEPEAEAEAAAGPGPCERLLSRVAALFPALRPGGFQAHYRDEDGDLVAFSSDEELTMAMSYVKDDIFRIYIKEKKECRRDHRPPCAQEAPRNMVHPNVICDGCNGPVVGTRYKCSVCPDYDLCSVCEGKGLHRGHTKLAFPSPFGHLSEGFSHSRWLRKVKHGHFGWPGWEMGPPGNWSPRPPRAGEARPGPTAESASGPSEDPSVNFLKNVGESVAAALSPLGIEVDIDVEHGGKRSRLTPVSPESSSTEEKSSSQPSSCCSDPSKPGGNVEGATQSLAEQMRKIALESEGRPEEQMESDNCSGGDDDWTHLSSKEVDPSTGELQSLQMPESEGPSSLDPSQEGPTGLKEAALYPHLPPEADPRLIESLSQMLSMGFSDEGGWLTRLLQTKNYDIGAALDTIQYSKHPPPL
Procedure: Immunofluorescence staining was performed using p62 and FK2 as markers to determine the level of the activity of p62 protein of the compounds (Examples 1-20). In order to determine the level of p62 activity and autophagy activity by the novel p62 ligand and its isomers in the cultured cells, the Hela cell line derived from cervical cancer patients was treated with a novel p62 ligand compound (Example 1 (ATB10048), Example 2 (ATB10047), Example 3 (ATB10049), Example 5 (ATB10050), Example 4 (ATB10051), Example 7 (ATB10052), Example 6 (ATB10056), Example 8 (ATB10057), Example 9 (ATB10060), Example 10 (ATB10072), Example 11 (ATB10075), Example 12 (ATB10078), […], Example 14 (ATB10080), Example 15 (ATB10081), Example 16 (ATB10087)), Example 17 (ATB0096), Example 18 (ATB10097), Example 19 (ATB10099) and Example 20 (ATB10100)) and cultured, and then the level of puncta expression and location of FK2, which was a marker of the protein to be delivered to and degraded in the autophagy through the mediation of the intracellular ubiquitinated p62, and the puncta local co-existence with p62 were observed.
For immunofluorescence staining, a cover glass was placed on a 24-well plate, cells were dispensed and cultured for 24 hours, and then 1 uM of the novel p62 ligand according to the present invention was treated. After culturing for an additional 6 hours for the action of the compound, the medium was removed, and the cells were fixed using formaldehyde at room temperature. In order to prevent non-specific staining, the cells were reacted with a blocking solution at room temperature for 1 hour, and then the LC3 antibody diluted at a certain ratio was treated with a blocking solution and then reacted at room temperature for 1 hour. After the antibody-treated cells were washed 3 times with PBS, the goat-derived secondary antibody was diluted at a certain ratio using the blocking solution, and then reacted at room temperature for 30 minutes. After further washing with PBS three times, and DAPI staining was performed for intracellular nuclear staining. Then, the level of expression of p62 or FK2, the level of intracellular puncta formation, and the level of coexistence in the cells were observed by a confocal microscope.

[2] = biological target: T1, p62 protein; experiment: Oligomerization activity of p62 protein by immunoblotting; set-up: endogenous in cells; details: HEK293 cell line lysate treated with test compounds for 2 hours at room temperature
Description: In order to evaluate the oligomerization activity efficacy of p62 protein of the compounds (Examples 1-20), HEK293 cell line, which is human embryonic kidney-derived cell, was collected. As representative compounds of the present compounds, the compounds of Examples 1-20 (Example 1 (ATB10048), Example 2 (ATB10047), Example 3 (ATB10049), Example 4 (ATB10051), Example 5 (ATB10050), Example 6 (ATB10056), Example 7 (ATB10052), Example 8 (ATB10057), Example 9 (ATB10060), Example 10 (ATB10072), Example 11 (ATB10075), Example 12 (ATB10078), Example 13 (ATB10079), Example 14 (ATB10080), Example 15 (ATB10081), Example 16 (ATB10087), Example 17 (ATB10096), Example 18 (ATB10097), Example 19 (ATB10099) and Example 20 (ATB10100)) were selected, and in order to measure the activation and oligomerization of the p62 protein in cells according to the treatment with these selected representative compounds, each cell was dispensed into a 100 phi dish. The cells were collected after additional culture for 24 hours so that the cells were completely attached to the surface of the plate, and 100 ul of lysis buffer (20 mM Tris (pH 7.4), 150 mM NaCl, 1% Triton X-100, 2 mM NaF, 2 mM EDTA, 2 mM beta-glycerophosphate, 5 mM sodium orthovanadate, 1 mM PMSF, leupeptin, aproteinin) was injected to each sample, and the cells were lysed. Based on the measured total protein concentration, each sample was treated with the test compounds for 2 hours at room temperature, and then a sample buffer was added and reacted at 95° C. for 10 minutes. 25 ul was taken from the samples after the reaction was completed and dispensed into each well of an acrylamide gel, and immunoblotting was performed.

[3] = biological target: T1, p62 protein; experiment: Activity of p62 protein and delivery to autophagosome by immunofluorescence staining (p62, LC3-GFP) and confocal microscopy; set-up: endogenous in cells; host or cells: HeLa; details: Hela-LC3-GFP cell line, 5 uM, 24 hours
Procedure: Immunofluorescence staining was performed using p62 and FK2 marker to determine the level of activity of p62 protein of the compounds (Examples 1-20). In order to determine the level of p62 activity and autophagy activity by the novel p62 ligand and its isomers in cultured cells, Hela-LC3-GFP cell line derived from cervical cancer patients was treated with the novel p62 ligand compounds (Example 2 (ATB10047), Example 3 (ATB10049), Example 4 (ATB10051), Example 6 (ATB10056), Example 9 (ATB10060), Example 12 (ATB10078), Example 16 (ATB10087) and Example (ATB10097)) and cultured. Then, the level of puncta expression and location of LC3-GFP, which is an essential autophagosome marker for macroautophagy, and the puncta local co-existence of p62 were observed.
For immunofluorescence staining, a cover glass was placed on a 24-well plate, cells were dispensed and cultured for 24 hours, and then treated with 5 uM of the novel p62 ligand according to the present invention. The cells were further cultured for an additional 24 hours for the action of the compound, the medium was removed, and the cells were fixed using formaldehyde at room temperature. In order to prevent non-specific staining, the cells were reacted with a blocking solution at room temperature for 1 hour, and then the LC3 antibody diluted at a certain ratio was treated with the blocking solution and then reacted at room temperature for 1 hour. After the antibody-treated cells were washed 3 times with PBS, the goat-derived secondary antibody was diluted at a certain ratio using the blocking solution, and then reacted at room temperature for 30 minutes. The cells were washed again with PBS three times and subjected to DAPI staining for intracellular nuclear staining, and then the level of expression of p62 or LC3, intracellular puncta formation, and intracellular coexistence level were observed by a confocal microscope.

Row | Structure (SMILES) | delivery of ubiquitinated proteins marked with FK2 to autophagosome mediated by p62 (FIGS. 3a to 3d) [1] | p62 protein oligomerization activity (immunoblot, FIGS. 2a to 2d) [2] | targeting of activated, oligomerized p62 protein to the autophagosome (FIG. 4) [3]
1 | O=C(CO)NCc1cc(OCc2ccccc2)ccn1 [Example 4, N-((4-(benzyloxy)pyridin-2-yl)methyl)-2-hydroxyacetamide] | show the efficacy of delivering the proteins to be delivered to and degraded by autophagosome | increasing the p62 protein oligomerization activity | show the efficacy of targeting them to the autophagosome
2 | NC(=O)NCc1ccc(OCc2ccccc2)cn1 [Example 6, 1-((5-(benzyloxy)pyridin-2-yl)methyl)urea] | show the efficacy of delivering the proteins to be delivered to and degraded by autophagosome | increasing the p62 protein oligomerization activity | show the efficacy of targeting them to the autophagosome
3 | OCCNCc1ncc(OCc2ccccc2)cn1 [Example 9, 2-(((5-(benzyloxy)pyrimidin-2-yl)methyl)amino)ethan-1-ol] | show the efficacy of delivering the proteins to be delivered to and degraded by autophagosome | increasing the p62 protein oligomerization activity | show the efficacy of targeting them to the autophagosome
4 | COC(=O)CCNC[C@@H](O)COc1cc(OCc2ccccc2)ccn1 [Example 12, methyl (R)-3-((3-((4-(benzyloxy)pyridin-2-yl)oxy)-2-hydroxypropyl)amino)propanoate] | show the efficacy of delivering the proteins to be delivered to and degraded by autophagosome | increasing the p62 protein oligomerization activity | show the efficacy of targeting them to the autophagosome
5 | OCCNCc1ccc(CCc2ccccc2)o1 [Example 16, 2-(((5-phenethylfuran-2-yl)methyl)amino)ethan-1-ol] | show the efficacy of delivering the proteins to be delivered to and degraded by autophagosome | increasing the p62 protein oligomerization activity | show the efficacy of targeting them to the autophagosome
6 | OCCNCc1ccc(OCc2ccccc2)o1 [Example 18, 2-(((5-(benzyloxy)-furan-2-yl)methyl)amino)ethan-1-ol] | show the efficacy of delivering the proteins to be delivered to and degraded by autophagosome | increasing the p62 protein oligomerization activity | show the efficacy of targeting them to the autophagosome
